# Laboratory results published in PubChem BioAssay (NCI).
#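 Following 48 hours of exposure in 96-well plates, responses at five concentrations were used to interpolate endpoints linearly. GI50 = concentration required for 50% inhibition of growth. TGI denotes the concentration required for complete inhibition of growth.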
# Assays:
# Assay in all cases: NCI-60 cell line screen, 48 h
# [1] = system: TK-10 renal
# [2] = system: HOP-62 NSCLC
# [3] = system: NCI/ADR-RES ovarian
# [4] = system: SK-MEL-2 melanoma
# [5] = system: BT-549 breast
# [6] = system: A498 renal
# [7] = system: ACHN renal
# [8] = system: SK-OV-3 ovarian
# [9] = system: SW-620 colon
# [10] = system: NCI-H522 lung
# [11] = system: OVCAR-3 ovarian
# [12] = system: SF-295 CNS
# [13] = system: U251 CNS
# [14] = system: SK-MEL-28 melanoma
# [15] = system: NCI-H460 lung
# [16] = system: A549 NSCLC
# [17] = system: T-47D breast
# [18] = system: NCI-H226 lung
# [19] = system: HCT-116 colon
# [20] = system: SNB-19 CNS
# [21] = system: SF-539 CNS
# [22] = system: UACC-257 melanoma
# [23] = system: SR leukemia
# [24] = system: MCF7 breast
# [25] = system: PC-3 prostate
# [26] = system: SK-MEL-5 melanoma
# [27] = system: UACC-62 melanoma
# [28] = system: EKVX NSCLC
# [29] = system: OVCAR-4 ovarian
# [30] = system: OVCAR-8 ovarian
# [31] = system: COLO 205 colon
# [32] = system: UO-31 renal
# [33] = system: MDA-MB-231 breast
# [34] = system: MOLT-4 leukemia
# [35] = system: SF-268 CNS
# [36] = system: SNB-75 CNS
# [37] = system: DU-145 prostate
# [38] = system: CCRF-CEM leukemia
# [39] = system: RXF 393 renal
# [40] = system: HS 578T breast
# [41] = system: RPMI-8226 leukemia
# [42] = system: LOX IMVI melanoma
# [43] = system: 786-0 renal
# [44] = system: HT29 colon
# [45] = system: M14 melanoma
# [46] = system: MDA-MB-435
# [47] = system: HOP-92 NSCLC
# [48] = system: CAKI-1 renal
# [49] = system: KM12 colon
# [50] = system: NCI-H23 lung
# [51] = system: HCC-2998 colon
# [52] = system: MALME-3M melanoma
# [53] = system: IGROV1 ovarian
# [54] = system: K-562 leukemia
# [55] = system: HCT-15 colon
# [56] = system: SN12C renal
# [57] = system: HL-60(TB) leukemia
# [58] = system: OVCAR-5 ovarian
compound,measurement,setting,value
Cc1ccc(Nc2nc(N)c(C(=O)c3ccc(C#N)cc3)s2)cc1,GI50,[1],10.4 µM
same,TGI,[1],> 78.8 µM
same,GI50,[2],503 nM
same,TGI,[2],> 70.3 µM
same,GI50,[3],196 nM
same,TGI,[3],36.3 µM
same,GI50,[4],435 nM
same,TGI,[4],46.1 µM
same,GI50,[5],475 nM
same,TGI,[5],> 60.9 µM
same,GI50,[6],370 nM
same,TGI,[6],23.1 µM
same,GI50,[7],587 nM
same,TGI,[7],> 80.5 µM
same,GI50,[8],449 nM
same,TGI,[8],46 µM
same,GI50,[9],336 nM
same,TGI,[9],> 100 µM
same,GI50,[10],221 nM
same,GI50,[11],319 nM
same,TGI,[11],5.43 µM
same,GI50,[12],328 nM
same,TGI,[12],37.7 µM
same,GI50,[13],434 nM
same,TGI,[13],> 87.3 µM
same,GI50,[14],18.9 µM
same,TGI,[14],> 100 µM
same,GI50,[15],389 nM
same,TGI,[15],> 100 µM
same,GI50,[16],739 nM
same,TGI,[16],> 76.6 µM
same,GI50,[17],384 nM
same,TGI,[17],> 100 µM
same,GI50,[18],1600 nM
same,TGI,[18],> 93.5 µM
same,GI50,[19],241 nM
same,TGI,[19],6.74 µM
same,GI50,[20],509 nM
same,TGI,[20],53.5 µM
same,GI50,[21],312 nM
same,TGI,[21],2850 nM
same,GI50,[22],33.3 µM
same,TGI,[22],> 100 µM
same,GI50,[23],54.4 nM
same,TGI,[23],> 100 µM
same,GI50,[24],369 nM
same,TGI,[24],> 100 µM
same,GI50,[25],347 nM
same,TGI,[25],> 100 µM
same,GI50,[26],320 nM
same,TGI,[26],10.7 µM
same,GI50,[27],416 nM
same,TGI,[27],> 100 µM
same,GI50,[28],573 nM
same,TGI,[28],> 100 µM
same,GI50,[29],3.86 µM
same,TGI,[29],> 68.4 µM
same,GI50,[30],644 nM
same,TGI,[30],> 100 µM
same,GI50,[31],279 nM
same,TGI,[31],6.64 µM
same,GI50,[32],644 nM
same,TGI,[32],> 100 µM
same,GI50,[33],1010 nM
same,TGI,[33],> 100 µM
same,GI50,[34],468 nM
same,TGI,[34],> 100 µM
same,GI50,[35],2590 nM
same,TGI,[35],> 95.9 µM
same,GI50,[36],241 nM
same,TGI,[36],8.11 µM
same,GI50,[37],675 nM
same,TGI,[37],> 100 µM
same,GI50,[38],398 nM
same,TGI,[38],> 100 µM
same,GI50,[39],398 nM
same,TGI,[39],7.44 µM
same,GI50,[40],546 nM
same,TGI,[40],> 100 µM
same,GI50,[41],560 nM
same,TGI,[41],> 100 µM
same,GI50,[42],522 nM
same,TGI,[42],> 100 µM
same,GI50,[43],529 nM
same,TGI,[43],> 49.8 µM
same,GI50,[44],250 nM
same,TGI,[44],> 90.2 µM
same,GI50,[45],308 nM
same,TGI,[45],> 100 µM
same,GI50,[46],77.9 nM
same,GI50,[47],478 nM
same,TGI,[47],32.4 µM
same,GI50,[48],402 nM
same,TGI,[48],25 µM
same,GI50,[49],338 nM
same,TGI,[49],> 87.1 µM
same,GI50,[50],743 nM
same,TGI,[50],> 100 µM
same,GI50,[51],1590 nM
same,TGI,[51],> 53.9 µM
same,GI50,[52],5.25 µM
same,TGI,[52],> 100 µM
same,GI50,[53],1200 nM
same,TGI,[53],> 100 µM
same,GI50,[54],68.5 nM
same,TGI,[54],> 100 µM
same,GI50,[55],202 nM
same,TGI,[55],> 100 µM
same,GI50,[56],617 nM
same,TGI,[56],> 100 µM
same,GI50,[57],288 nM
same,TGI,[57],> 61.7 µM
same,GI50,[58],2980 nM
same,TGI,[58],> 100 µM
